This data set is described as follows: Phase 2 study of rivoceranib in R/M ACC: safety, adverse events, dose modifications. It counts as in vivo, human. The text has this: Overall design: An ongoing Phase 2, multicenter, open-label, single-arm study was designed to evaluate the efficacy and safety of rivoceranib in patients with recurrent or metastatic (R/M) adenoid cystic carcinoma (ACC) of all anatomic sites of origin. The study was composed of an initial screening phase (up to 28 days), a treatment phase, and a follow-up phase.
Objectives: Primary objectives were to evaluate safety & tolerability, efficacy by objective response rate (ORR), best overall response (BOR), time to response, duration of response, disease control rate, and duration of disease control. Secondary objectives were to evaluate efficacy as measured by overall survival, progression-free survival and event-free survival. The primary efficacy endpoint was the ORR, defined as the proportion of patients who achieved confirmed complete response (CR) or partial response (PR) per Response Evaluation Criteria in Solid Tumors (RECIST) Version 1.1 (V1.1). The secondary efficacy endpoints were duration of response (DoR) assessed by the investigator and a blinded independent review committee (BIRC), progression-free survival (PFS) assessed at 6 months, 12 months, and 2 years by investigator and BIRC, Time to Progression (TTP) assessed by investigator and BIRC, and overall survival (OS) assessed at 1 and 2 years. Exploratory efficacy endpoints include ORR per CHOI response criteria (based on the journal article, Choi et al., Correlation of computed tomography and positron emission tomography in patients with metastatic gastrointestinal stromal tumor treated at a single institution with imatinib mesylate: proposal of new computed tomography response criteria. J Clin Oncol. 2007; 25(13): 1753-1759) by a blinded independent review […] (BIRC) and disease control rate (DCR) per RECIST V1.1 by Investigator and BIRC. Except for CHOI response criteria, all response endpoints were assessed per RECIST V1.1 by Investigator and BIRC.
Dose determination: Enrolled patients initiated treatment with rivoceranib 700 mg daily (QD). Up to 3 levels of dose reduction for toxicity were permitted: 500 mg QD, 300 mg QD and 200 mg QD. Patients received treatment until disease progression, unacceptable toxicity, death or withdrawal of consent to treatment. Patients deriving benefit were permitted to continue treatment with rivoceranib beyond disease progression. After discontinuation of study treatment, patients were to be followed for survival (and initiation of new anticancer therapy) for 24 months. Patients were dosed with rivoceranib 700 mg orally daily (QD) in 28-day cycles. Treatment with rivoceranib was continued until disease progression, unacceptable toxicity, death, or withdrawal of consent.
The median duration of treatment was 31.07 weeks (range: 0.6 to 103.0). The median time-averaged daily dose was 397.6 mg/day, which was […] of initial daily dose of 700 mg/day. Overall, 85% of patients required 1 or more dose modifications (reduction or interruption) due to an adverse event (AE).
Safety Summary: Rivoceranib was generally well-tolerated with the toxicity profile as expected based on other studies of rivoceranib in patients with solid tumors, and consistent with the class effect of angiogenesis inhibitors. […] Four patients experienced a fatal adverse event. These events consisted of epistaxis in two patients and acute respiratory failure in two patients. […] The median time to each of these dose reductions was 4.00, 7.71 and 16.00 weeks, respectively. The median duration of treatment was 31.1 weeks (range, 0.6-103.0). The median actual dose intensity was 421.0 mg/day. The relative dose intensity was 60.1%. Overall, 68 patients required one or more dose modifications (reduction or interruption) due to an adverse event. The median time to first dose reduction was 4.1 weeks (range, 1-40).

In the case of `N#CC1(c2ccc(NC(=O)c3cccnc3NCc3ccncc3)cc2)CCCC1` [Rivoceranib, N-[4-(1-cyanocyclopentyl)phenyl]-2-{[(pyridin-4-yl)methyl]amino}pyridine-3-carboxamide], under “N = 80, 700 mg QD start”, the “fatal adverse event: acute respiratory failure” value was “two”, the “fatal adverse event: epistaxis” value is on record as “two” and the “patients who experienced a fatal adverse event” value is on record as “Four”. Moreover, for the setting “human, in vivo”, the “Median time to dose reduction to 300 mg QD” value is 7.71 weeks; the “Median time to dose reduction to 500 mg QD” value is 4.00 weeks; the “Number of Subjects with Dose Interruption (n, %)” value is given as “(83.8) %”; the “Number of Subjects with Dose Modification (n, %)” value was “(88.8) %”. Moreover, for the setting “human, in vivo”, the “Treatment interruptions due to adverse events, patients” value came out at 86.3%; the “Treatment reductions due to adverse events, patients” value is given as 48.8%; the “median time to first dose reduction” value came to 4.1 weeks; the “patients dose reduced from 700 mg QD to 500 mg QD” value is given as 80.0%. For the same compound, under “human, in vivo”, the “patients dose reduced to 200 mg QD” value is listed as 32.5% and the “patients dose reduced to 300 mg QD” value came to 51.3%.

These data come from US20260041677A1, “COMPOSITIONS AND METHODS FOR TREATING ADENOID CYSTIC CARCINOMA” (ELEVAR THERAPEUTICS, INC., priority 2022, published 2026).
